# Data taken from patent US20240382561A1, “GLUCOREGULATORY COMPOUND, COMPOSITION AND USES THEREOF” (THE HONG KONG POLYTECHNIC UNIVERSITY, priority 2021, published 2024).
# Columns and labels:
# [1] = test system: MIN6 pancreatic beta cell; experiment: Insulin secretion in MIN6 cells with GLP-1R antagonist exendin (9-39); assay type: cell-based, mouse; conditions: exendin (9-39) 10 nM
# [2] = test system: 3T3-L1 adipocytes; experiment: 2-NBDG glucose uptake in 3T3-L1 adipocytes; assay type: cell-based; conditions: inhibitor 1 μM; for effect of co-treatment on CYSTM1-induced glucose uptake: 3T3-L1 cells, CYSTM1 1 μM
# Experimental: (§1) To determine whether CYSTM1 can increase glucose uptake in adipocytes, in vitro assays of 2-NBDG uptake in response to CYSTM1 treatment and potential inhibitors in 3T3-L1 adipocytes and mouse primary adipocytes were performed. 3T3-L1 preadipocytes were maintained in Dulbecco's modified Eagle's medium (DMEM) supplemented with 10% fetal bovine serum. Two days after confluence, 3T3-L1 cells were induced to differentiation using the standard adipogenic cocktail (0.5 mM IBMX, 1 μM dexamethasone and 10 μg/ml insulin) that was applied for 4 days and followed by 10 μg/ml insulin treatment for additional 4 days. The culture medium was changed every other day. The differentiated cells were maintained in normal serum containing DMEM. Mouse primary adipocytes were isolated from 10 to 12-week-old male C57BL/6J mice using a collagenase digestion protocol as described, briefly, white fat pads were removed, minced and digested using collagenase for 60-90 min at 37° C. in Krebs-Ringers phosphate HEPES buffer (KRPH) (15 mM HEPES, pH 7.4, 118 mM NaCl, 4.8 mM KCl, 1.2 mM MgSO4, 1.3 mM CaCl2, 1.2 mM KHPO3, 0.1% BSA). The stromal vascular fraction was separated from the adipocytes and cultured using DMEM and differentiated the same as 3T3-L1 adipocytes as described above. For glucose uptake, differentiated 3T3-L1 adipocytes and primary adipocytes are plated at 10,000 cells/well in 96-well plates and fasted overnight with low glucose serum-free medium (DMEM with 0.25% BSA) DMEM and 2-NBDG (Cayman Chemical) was performed as follow: briefly, 3T3-L1 cells were washed twice with warm (37° C.) KRPH buffer, and adipocytes were either untreated or treated with different concentration of CYSTM1 (1 nM, 10 nM, 100 nM and 1000 nM) for 1 h in KRPH buffer containing 400 nM of 2-NBDG. NBDG uptake was measured using a fluorescent microplate reader (Thermo Scientific Varioskan LUX Multimode Microplate Reader).
# [3] = test system: mouse primary adipocytes; experiment: 2-NBDG glucose uptake in mouse primary adipocytes; assay type: cell-based; conditions: inhibitor 1 μM; for effect of co-treatment on CYSTM1-induced glucose uptake: primary adipocytes, CYSTM1 1 μM
# Experimental: as §1
compound,measurement,setting,value
glucagon-like peptide 1 [GLP-1],glucose-induced insulin secretion of GLP-1 in presence of exendin (9-39),[1]; GLP-1 10 nM,inhibited by exendin (9-39)
CCn1c(-c2nonc2N)nc2c(C#CC(C)(C)O)ncc(OC[C@H]3CCCNC3)c21 [GSK690693],inhibition of CYSTM1-induced increase in glucose uptake,"[2]; 3T3-L1 adipocytes, 5 μM, 10 μM, CYSTM1 1 μM (FIG. 8B)",inhibited by the dose-dependent manner
same,effect of co-treatment on CYSTM1-induced glucose uptake,[2],blocked
same,inhibition of CYSTM1-induced increase in glucose uptake,"[3]; mouse primary adipocytes, 5 μM, 10 μM, CYSTM1 1 μM (FIG. 8D)",inhibited by the dose-dependent manner
same,effect of co-treatment on CYSTM1-induced glucose uptake,[3],blocked
Cc1cccc([C@@H](CO)NC(=O)[C@@H](C)N2Cc3ccc(-c4nc(NC5CCOCC5)ncc4Cl)cc3C2=O)c1 [ERK1/2 inhibitor 1],effect of co-treatment on CYSTM1-induced glucose uptake,[2],blocked
same,effect of co-treatment on CYSTM1-induced glucose uptake,[3],blocked
exendin (9-39),inhibition of CYSTM1 activity (insulin secretion) by the antagonist,[1]; CYSTM1 10 nM,did not inhibit CYSTM1 activity
same,inhibition of glucose-induced insulin secretion of GLP-1 by the antagonist,[1]; GLP-1 10 nM,inhibited
